Data from PMC11198769, “Enhancement of transcription efficiency by TAR-Tat system increases the functional expression of human olfactory receptors” (PLOS ONE, 2024).

Tests used:
Assay in all cases: Comprehensive analysis (screening) of hORs against n-hexanal
Type in all cases: cell-based
OR2Z1 = target: T1, OR2Z1 (Homo sapiens, UniProt Q8NG97); details: OR2Z1, 500 μM n-hexanal, with the TAR-Tat system (hOR/pHEK), n = 1
T1 construct: Lucy tag (N); FLAG (N); Rho tag (N); expressed in transfected cells; host or cells: Flp-In T-REx-293 cells stably expressing RTP1S, Gαolf and Ric8-b
T1 sequence (Q8NG97 1-314): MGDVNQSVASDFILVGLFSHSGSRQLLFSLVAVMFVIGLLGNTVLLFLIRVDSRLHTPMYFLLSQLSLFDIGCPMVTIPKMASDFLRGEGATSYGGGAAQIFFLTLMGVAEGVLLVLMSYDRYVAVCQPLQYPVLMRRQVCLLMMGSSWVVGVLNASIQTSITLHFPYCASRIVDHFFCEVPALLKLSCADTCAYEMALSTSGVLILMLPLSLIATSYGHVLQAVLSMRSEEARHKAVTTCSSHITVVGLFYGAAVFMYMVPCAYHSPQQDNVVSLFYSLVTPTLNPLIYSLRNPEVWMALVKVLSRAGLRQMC
Method: (§1) Transfection was performed as described in the “hOR assay,” but 12.5 ng of 379 hOR plasmids (hOR/pBApo and hOR/pHEK) was transfected with the 12.5 ng pGlosensor^TM-22F cAMP biosensor plasmid (Promega) in 384 plates per well. After loading the GloSensor cAMP substrate and preincubation, the assay buffer was added (30 μL/well). After 10 min of equilibration, luminescence was measured (L0). Then, 50 mM n-hexanal, which was diluted with 10% DMSO/assay buffer, was added (4.7 μL/well). After 9 min, luminescence was measured (L9min). All the L9min values were subtracted by the L0 value (ΔL).

OR4K5 = target: T2, OR4K5 (Homo sapiens, UniProt Q8NGD3); details: OR4K5, 500 μM n-hexanal, with the TAR-Tat system (hOR/pHEK), n = 1
T2 construct: Lucy tag (N); FLAG (N); Rho tag (N); expressed in transfected cells; host or cells: Flp-In T-REx-293 cells stably expressing RTP1S, Gαolf and Ric8-b
T2 sequence (Q8NGD3 1-323): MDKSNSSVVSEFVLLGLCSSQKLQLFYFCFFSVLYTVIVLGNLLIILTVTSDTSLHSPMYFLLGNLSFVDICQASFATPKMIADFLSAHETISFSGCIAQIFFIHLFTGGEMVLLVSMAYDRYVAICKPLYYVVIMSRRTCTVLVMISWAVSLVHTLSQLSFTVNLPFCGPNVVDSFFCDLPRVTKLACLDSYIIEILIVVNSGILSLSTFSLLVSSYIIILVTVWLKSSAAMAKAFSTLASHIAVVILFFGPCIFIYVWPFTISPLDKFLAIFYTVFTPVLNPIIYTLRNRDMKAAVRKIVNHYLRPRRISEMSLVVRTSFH
Method: as §1

OR56B1 = target: T3, OR56B1 (Homo sapiens, UniProt Q8NGI3); details: OR56B1, 500 μM n-hexanal, with the TAR-Tat system (hOR/pHEK), n = 1
T3 construct: Lucy tag (N); expressed in transfected cells; host or cells: Flp-In T-REx-293 cells stably expressing RTP1S, Gαolf and Ric8-b
T3 sequence (Q8NGI3 1-324): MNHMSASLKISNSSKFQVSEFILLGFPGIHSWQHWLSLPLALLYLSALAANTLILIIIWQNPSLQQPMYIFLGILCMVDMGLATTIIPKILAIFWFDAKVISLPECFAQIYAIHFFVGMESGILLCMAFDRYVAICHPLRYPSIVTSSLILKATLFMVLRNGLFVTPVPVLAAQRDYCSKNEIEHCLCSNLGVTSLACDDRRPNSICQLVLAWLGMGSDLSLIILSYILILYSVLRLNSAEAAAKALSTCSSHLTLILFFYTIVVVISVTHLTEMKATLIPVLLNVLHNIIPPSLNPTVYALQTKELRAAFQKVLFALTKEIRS
Method: as §1

OR5K1 = target: T4, OR5K1 (Homo sapiens, UniProt Q8NHB7); details: OR5K1, 500 μM n-hexanal, with the TAR-Tat system (hOR/pHEK), n = 1
T4 construct: Lucy tag (N); FLAG (N); Rho tag (N); expressed in transfected cells; host or cells: Flp-In T-REx-293 cells stably expressing RTP1S, Gαolf and Ric8-b
T4 sequence (Q8NHB7 1-308): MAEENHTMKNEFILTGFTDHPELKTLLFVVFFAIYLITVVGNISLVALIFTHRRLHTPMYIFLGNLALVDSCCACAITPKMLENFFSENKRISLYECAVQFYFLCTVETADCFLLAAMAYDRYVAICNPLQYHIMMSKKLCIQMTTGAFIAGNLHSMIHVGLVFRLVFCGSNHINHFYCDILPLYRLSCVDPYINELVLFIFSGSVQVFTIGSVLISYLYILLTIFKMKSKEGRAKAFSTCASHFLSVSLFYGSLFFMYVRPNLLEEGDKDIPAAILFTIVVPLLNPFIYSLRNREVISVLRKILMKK
Method: as §1

OR8B3 = target: T5, OR8B3 (Homo sapiens, UniProt Q8NGG8); details: OR8B3, 500 μM n-hexanal, with the TAR-Tat system (hOR/pHEK), n = 1
T5 construct: Lucy tag (N); FLAG (N); Rho tag (N); expressed in transfected cells; host or cells: Flp-In T-REx-293 cells stably expressing RTP1S, Gαolf and Ric8-b
T5 sequence (Q8NGG8 1-313): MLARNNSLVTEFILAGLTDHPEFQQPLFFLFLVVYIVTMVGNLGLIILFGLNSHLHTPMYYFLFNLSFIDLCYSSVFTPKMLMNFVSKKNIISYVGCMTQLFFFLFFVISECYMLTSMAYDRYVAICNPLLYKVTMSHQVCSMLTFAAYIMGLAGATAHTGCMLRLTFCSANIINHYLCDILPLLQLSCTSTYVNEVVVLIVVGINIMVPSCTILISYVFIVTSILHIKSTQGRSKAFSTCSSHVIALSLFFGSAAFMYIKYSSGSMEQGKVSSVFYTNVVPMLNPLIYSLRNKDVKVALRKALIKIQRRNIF
Method: as §1

OR8B8 = target: T6, OR8B8 (Homo sapiens, UniProt Q15620); details: OR8B8, 500 μM n-hexanal, with the TAR-Tat system (hOR/pHEK), n = 1
T6 construct: Lucy tag (N); FLAG (N); Rho tag (N); expressed in transfected cells; host or cells: Flp-In T-REx-293 cells stably expressing RTP1S, Gαolf and Ric8-b
T6 sequence (Q15620 1-311): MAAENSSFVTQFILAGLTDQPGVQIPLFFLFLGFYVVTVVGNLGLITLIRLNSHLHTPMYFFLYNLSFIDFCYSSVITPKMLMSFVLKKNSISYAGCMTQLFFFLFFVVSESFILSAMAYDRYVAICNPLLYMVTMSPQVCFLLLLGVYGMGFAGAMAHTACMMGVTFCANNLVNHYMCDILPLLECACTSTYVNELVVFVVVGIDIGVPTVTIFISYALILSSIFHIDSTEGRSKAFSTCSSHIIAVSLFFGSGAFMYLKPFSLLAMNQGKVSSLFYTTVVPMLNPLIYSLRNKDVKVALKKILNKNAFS
Method: as §1

Measured: response value (ΔL)

CCCCCC=O [n-hexanal]
> 500: OR2Z1 | OR4K5 | OR56B1 | OR5K1 | OR8B3 | OR8B8
